“And” between values parts separate entries of the source, which are not always exact repeats. Equal values may be shown once. Inconclusive results and toxic doses are left out.

In this experiment the test system is BDF1 mice, P388 leukemia ip, median survival T/C. The experiment can be described thus: NCI In Vivo Anticancer Drug Screen. Data for tumor model P388 Leukemia (intraperitoneal) in B6D2F1 (BDF1) mice. The conditions noted are these: endpoint: median survival time, higher = longer survival. Summed up:
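Each value expresses how treatment altered survival: treated-mouse outcome over vehicle-mouse outcome, both groups bearing the transplanted tumour.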

The mark [1] stands for this setting: dose: 100.0 mg/kg/injection, schedule: Q01DX001 (ip), vehicle: saline with Tween-80.
Setting [2] is: dose: 200.0 mg/kg/injection, schedule: Q01DX001 (ip), vehicle: saline with Tween-80.
[3] abbreviates: dose: 400.0 mg/kg/injection, schedule: Q01DX001 (ip), vehicle: saline with Tween-80.
The mark [4] stands for this setting: dose: 12.5 mg/kg/injection, schedule: Q01DX009 (ip), vehicle: water.
Setting [5] is: dose: 25.0 mg/kg/injection, schedule: Q01DX009 (ip), vehicle: water.
Setting [6] is: dose: 50.0 mg/kg/injection, schedule: Q01DX009 (ip), vehicle: water.
The mark [7] stands for this setting: dose: 100.0 mg/kg/injection, schedule: Q01DX009 (ip), vehicle: water.
Where [8] appears, read: dose: 200.0 mg/kg/injection, schedule: Q01DX009 (ip), vehicle: water.
[9] abbreviates: dose: 100.0 mg/kg/injection, schedule: Q04DX003 (ip), vehicle: saline.
[10] abbreviates: dose: 200.0 mg/kg/injection, schedule: Q04DX003 (ip), vehicle: saline.
Setting [11] is: dose: 100.0 mg/kg/injection, schedule: Q04DX003 (ip), vehicle: saline with Tween-80.
[12] abbreviates: dose: 200.0 mg/kg/injection, schedule: Q04DX003 (ip), vehicle: saline with Tween-80.
Where [13] appears, read: dose: 50.0 mg/kg/injection, schedule: Q01DX009 (ip), vehicle: saline.

`COc1ccc2nc(N)n(C(=O)c3ccccc3)c(=O)c2c1`: the T/C is, setting by setting: under setting [1], 101 % of control; under setting [2], 109 % of control; under setting [3], 109 % of control.

With `COc1cc(C(=O)NCC2(C)OC3(OC(=O)C2O)C(=O)N/C(=C(\C=O)C(C)=O)OC3C(O)C2CN2C(C)=O)c2cccc(C)c2c1` (configuration not stated), the T/C is, setting by setting: (dose: 0.05 mg/kg/injection, schedule: Q01DX010 (ip), vehicle: alkali diluted with saline) 245 % of control; (dose: 0.1 mg/kg/injection, schedule: Q01DX010 (ip), vehicle: alkali diluted with saline) 300 % of control; (dose: 12.5 micrograms/kg/injection, schedule: Q01DX010 (ip), vehicle: other) 180 % of control; (dose: 25.0 micrograms/kg/injection, schedule: Q01DX010 (ip), vehicle: other) 155 % of control; (dose: 50.0 micrograms/kg/injection, schedule: Q01DX010 (ip), vehicle: other) 195 % of control.

As for `O=C(c1ccccc1)c1c(-c2ccccc2)c(C(=O)c2ccccc2)c2ccccc2c1Cl`, the T/C runs as follows: under setting [4], 102 % of control; under setting [5], 113 % of control; (dose: 25.0 mg/kg/injection, schedule: Q04DX003 (ip), vehicle: water) 114 % of control; under setting [6], 102 % of control; (dose: 50.0 mg/kg/injection, schedule: Q04DX003 (ip), vehicle: water) 104 % of control; under setting [7], 109 % of control. For the same compound, the T/C by setting is: (dose: 100.0 mg/kg/injection, schedule: Q04DX003 (ip), vehicle: water) 96 % of control; under setting [8], 96 % of control; (dose: 200.0 mg/kg/injection, schedule: Q04DX003 (ip), vehicle: water) 100 % of control; (dose: 400.0 mg/kg/injection, schedule: Q01DX009 (ip), vehicle: water) 102 % of control; (dose: 400.0 mg/kg/injection, schedule: Q04DX003 (ip), vehicle: water) 98 % of control.

Regarding `CC(=O)NC(C)C(C)C` (configuration not stated), the T/C was 100 % of control under setting [9]; 95 % of control under setting [10]; 100 % of control (dose: 400.0 mg/kg/injection, schedule: Q04DX003 (ip), vehicle: saline).

As for `OCc1nccn1Cc1ccccc1`, the T/C reads like this: under setting [4], 108 % of control; under setting [5], 99 % of control; under setting [6], 101 % of control; under setting [7], 108 % of control; under setting [8], 101 % of control; (dose: 300.0 mg/kg/injection, schedule: Q01DX009 (ip), vehicle: water) 114 % of control.

Take `CSc1nc(C)c(Br)c(Sc2nc(N)nc3nc[nH]c23)n1`: the T/C runs as follows: (dose: 66.0 mg/kg/injection, schedule: Q04DX003 (ip), vehicle: saline with Tween-80) 154 % of control; under setting [11], 150 % of control; (dose: 150.0 mg/kg/injection, schedule: Q04DX003 (ip), vehicle: saline with Tween-80) 150 % of control.

As to `CS(=O)(=O)OCCN(CCOS(C)(=O)=O)c1ccc(C=Nc2ccc3oc(=O)ccc3c2)cc1`, the T/C is, setting by setting: under setting [11], 212 % of control; (dose: 132.0 mg/kg/injection, schedule: Q04DX003 (ip), vehicle: saline with Tween-80) 165 % of control; under setting [12], 243 % of control.

In the case of `CCCCCCCCCCCC[N+](C)(C)Cc1ccccc1`, the T/C runs as follows: (dose: 0.43 mg/kg/injection, schedule: Q04DX003 (ip), vehicle: saline) 90 % of control; (dose: 0.78 mg/kg/injection, schedule: Q01DX009 (ip), vehicle: saline) 109 % of control; (dose: 0.87 mg/kg/injection, schedule: Q04DX003 (ip), vehicle: saline) 100 % of control; (dose: 1.56 mg/kg/injection, schedule: Q01DX009 (ip), vehicle: saline) 109 % of control; (dose: 1.75 mg/kg/injection, schedule: Q04DX003 (ip), vehicle: saline) 100 % of control; (dose: 2.05 mg/kg/injection, schedule: Q01DX009 (ip), vehicle: saline) 161 % of control. Besides, where the note is “dose: 3.5 mg/kg/injection, schedule: Q04DX003 (ip), vehicle: saline”, the T/C was 109 % of control.

With `N=c1nc2n(cc1F)[C@@H]1O[C@H](CO)[C@@H](O)[C@@H]1O2`, the T/C by setting is: (dose: 64.0 mg/kg/injection, schedule: Q01DX005 (ip), vehicle: saline) 153 % of control; (dose: 128.0 mg/kg/injection, schedule: Q01DX005 (ip), vehicle: saline) 171 % of control; (dose: 256.0 mg/kg/injection, schedule: Q01DX005 (ip), vehicle: saline) 209 % of control; (dose: 512.0 mg/kg/injection, schedule: Q01DX005 (ip), vehicle: saline) 276 % of control; (dose: 768.0 mg/kg/injection, schedule: Q01DX005 (ip), vehicle: saline) 86 % of control.

For the compound `CC(C)(C)c1ccc(OS(=O)(=O)c2ccccc2[N+](=O)[O-])cc1`, the T/C runs as follows: under setting [1], 104 % of control; under setting [2], 100 % of control; under setting [3], 113 % of control.

As to `CC(C)(C)c1cc2c3c(c1)C(C)(C)OS3(C)(=O)OC2(C)C`, the T/C is, setting by setting: (dose: 12.5 mg/kg/injection, schedule: Q04DX002 (ip), vehicle: saline with Tween-80) 93 % of control; (dose: 25.0 mg/kg/injection, schedule: Q04DX002 (ip), vehicle: saline with Tween-80) 107 % of control; (dose: 50.0 mg/kg/injection, schedule: Q04DX002 (ip), vehicle: saline with Tween-80) 97 % of control and 98 % of control.

Take `COc1ccc(N=C2C(=O)Nc3ccc(Br)cc32)cc1`: the T/C by setting is: (dose: 50.0 mg/kg/injection, schedule: Q01DX009 (ip), vehicle: saline with Tween-80) 100 % of control; (dose: 100.0 mg/kg/injection, schedule: Q01DX009 (ip), vehicle: saline with Tween-80) 105 % of control; (dose: 200.0 mg/kg/injection, schedule: Q01DX009 (ip), vehicle: saline with Tween-80) 104 % of control; (dose: 400.0 mg/kg/injection, schedule: Q01DX009 (ip), vehicle: saline with Tween-80) 104 % of control.

Regarding `O=c1c(N=Nc2ccccc2)c[nH]n1-c1ccccc1`, the T/C by setting is: (dose: 62.5 mg/kg/injection, schedule: Q01DX009 (ip), vehicle: saline with Tween-80) 90 % of control; (dose: 250.0 mg/kg/injection, schedule: Q01DX009 (ip), vehicle: saline with Tween-80) 88 % of control.

For `CC1Cc2ccccc2SC1(C)C` (configuration not stated), the T/C is, setting by setting: (dose: 12.5 mg/kg/injection, schedule: Q01DX009 (ip), vehicle: saline) 101 % of control; (dose: 25.0 mg/kg/injection, schedule: Q01DX009 (ip), vehicle: saline) 114 % of control; under setting [13], 115 % of control.

With `CCc1nnc2ncccn12`, the T/C runs as follows: under setting [13], 97 % of control and 102 % of control and 104 % of control; (dose: 100.0 mg/kg/injection, schedule: Q01DX009 (ip), vehicle: saline) 104 % of control and 107 % of control; (dose: 200.0 mg/kg/injection, schedule: Q01DX009 (ip), vehicle: saline) 91 % of control and 100 % of control.

With `N#CC(C#N)c1nc2cccnc2s1`, the T/C is, setting by setting: under setting [11], 109 % of control; under setting [12], 93 % of control.

For the compound `CC(=O)Nc1cc(OC(C)=O)n(-c2ccccc2)n1`, the T/C is, setting by setting: (dose: 87.5 mg/kg/injection, schedule: Q01DX009 (ip), vehicle: saline with Tween-80) 97 % of control; (dose: 175.0 mg/kg/injection, schedule: Q01DX009 (ip), vehicle: saline with Tween-80) 86 % of control; (dose: 350.0 mg/kg/injection, schedule: Q01DX009 (ip), vehicle: saline with Tween-80) 98 % of control.

Regarding `CC(=O)c1cccc(OCC(O)CN(C(C)C)C(C)C)c1` (configuration not stated), the T/C is 104 % of control under setting [9] and 109 % of control under setting [10].

For the compound `O=S1(=O)CCN(C2CC2)CC1`, the T/C (dose: 50.0 mg/kg/injection, schedule: Q01DX009 (ip), vehicle: Klucel (hydroxypropylcellulose) (HPC)) is 104 % of control.

(Values after PubChem BioAssay AID328 (DTP/NCI, 2004).)
